Measured values as given in ChEMBL document CHEMBL1201862, “PubChem BioAssay data set” (2004).
Active and inactive are the calls of the source.

Legend:
[1] = target: T1, Heat shock factor protein 1 (Mus musculus, UniProt P38532); experiment: decrease of HSF1-responsive luciferase luminescence – cell-based, NIH3T3, dose retest, confirmation (AID 2382); type: functional;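 further: NIH3T3 fibroblasts with HSF1-driven luciferase reporter stressed by proteasome inhibitor MG132; luminescence from HSF1-driven luciferase expression after 8 hours of MG132 stress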
T1 sequence (P38532 whole entry): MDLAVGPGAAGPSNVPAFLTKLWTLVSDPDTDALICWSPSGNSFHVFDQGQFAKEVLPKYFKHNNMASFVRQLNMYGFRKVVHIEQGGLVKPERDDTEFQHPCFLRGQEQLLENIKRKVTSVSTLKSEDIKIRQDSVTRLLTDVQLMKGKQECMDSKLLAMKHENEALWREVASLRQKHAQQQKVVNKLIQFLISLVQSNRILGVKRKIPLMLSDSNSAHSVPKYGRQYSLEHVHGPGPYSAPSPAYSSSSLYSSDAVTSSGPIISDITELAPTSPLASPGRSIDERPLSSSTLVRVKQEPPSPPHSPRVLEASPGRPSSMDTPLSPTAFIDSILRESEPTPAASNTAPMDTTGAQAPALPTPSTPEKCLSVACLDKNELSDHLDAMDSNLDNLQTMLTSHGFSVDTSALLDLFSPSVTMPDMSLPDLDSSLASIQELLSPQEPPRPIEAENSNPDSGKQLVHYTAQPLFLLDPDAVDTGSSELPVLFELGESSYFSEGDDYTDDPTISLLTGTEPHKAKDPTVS

[2] = target: T2, Orexin/Hypocretin receptor type 1 (Homo sapiens, UniProt O43613); experiment: (§1) Fluorescence-based cell-based high throughput dose response assay for antagonists of the orexin 1 receptor (OX1R; HCRTR1). [Related pubchem assays (depositor defined):AID434989, AID435008, AID463079, AID485270, AID492963, AID492964, AID492965, AID493232, AID504717, AID504718]; type: functional
T2 sequence (O43613 whole entry): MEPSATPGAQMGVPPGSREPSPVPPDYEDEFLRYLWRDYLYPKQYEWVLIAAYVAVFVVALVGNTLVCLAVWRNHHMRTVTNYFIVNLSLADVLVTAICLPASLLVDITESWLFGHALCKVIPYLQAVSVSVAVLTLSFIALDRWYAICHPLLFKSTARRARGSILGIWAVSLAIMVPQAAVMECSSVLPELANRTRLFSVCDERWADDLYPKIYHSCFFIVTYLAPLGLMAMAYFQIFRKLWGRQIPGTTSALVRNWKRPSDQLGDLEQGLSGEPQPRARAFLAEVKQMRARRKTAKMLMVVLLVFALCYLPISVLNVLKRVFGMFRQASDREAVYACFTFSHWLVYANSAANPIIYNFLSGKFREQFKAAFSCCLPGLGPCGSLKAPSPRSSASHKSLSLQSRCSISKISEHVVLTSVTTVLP

CHO-K1 = experiment: (§2) Counterscreen for antagonists of the orexin 1 receptor (OX1R; HCRTR1): Homogeneous time resolved fluorescence (HTRF)-based cell-based dose response assay to identify antagonists of the parental CHO-K1 cell line. [Related pubchem assays (depositor defined):AID434989, AID435008, AID463079, AID485270, AID492963, AID492964, AID492965, AID493232, AID504699, AID504701]; type: functional; conditions: Cricetulus griseus
Orexin receptor type 2 [3] = target: T3, Orexin receptor type 2 (Homo sapiens, UniProt O43614); experiment: Counterscreen assay for antagonists of the orexin 1 receptor (OX1R; HCRTR1): Fluorescence-based cell-based dose response assay for antagonists of the orexin 2 receptor (OX2R; HCRTR2), run by assay provider.; type: functional
T3 sequence (O43614 whole entry): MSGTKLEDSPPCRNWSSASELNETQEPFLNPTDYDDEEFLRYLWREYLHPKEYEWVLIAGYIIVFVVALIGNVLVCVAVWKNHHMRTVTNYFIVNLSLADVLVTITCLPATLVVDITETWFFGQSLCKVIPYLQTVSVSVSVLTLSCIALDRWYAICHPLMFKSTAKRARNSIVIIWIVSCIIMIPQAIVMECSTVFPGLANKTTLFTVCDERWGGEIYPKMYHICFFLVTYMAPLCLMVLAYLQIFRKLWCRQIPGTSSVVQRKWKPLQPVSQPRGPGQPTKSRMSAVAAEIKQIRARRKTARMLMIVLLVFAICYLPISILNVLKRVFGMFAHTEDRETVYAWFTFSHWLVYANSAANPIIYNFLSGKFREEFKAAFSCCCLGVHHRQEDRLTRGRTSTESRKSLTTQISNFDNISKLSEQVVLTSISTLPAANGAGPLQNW

[4] = alpha-synuclein stem-loop luciferase translation blockers – H4 neuroglioma cells, luminescence, confirmation (AID 1988); type: functional, cell-based
[5] = luciferase reporter signal suppression in cells – H4 neuroglioma cells, luminescence, dose response (AID 1990); type: functional, cell-based
[6] = target: T2, Orexin/Hypocretin receptor type 1; experiment: as §1, with “Homogeneous Time Resolved Fluorescence (HTRF)-based” for “Fluorescence-based”; type: functional
[7] = Luminescence Cell-Based Dose Response HTS to Identify Inhibitors of 5'UTR Stem-Loop Driven Prion Protein mRNA Translation in H4 Neuroglioblastoma Cells. [Related pubchem assays: 1827 (Project Summary), 1813 (Primary HTS)]; type: functional
[8] = viability of uninfected HEp-2 cells – cell-based, HTS, cytotoxicity control for RSV inhibitor project, dose response (AID 2410); type: functional; conditions: human respiratory syncytial virus
[9] = as §2, with “Fluorescence-based” for “Homogeneous time resolved fluorescence (HTRF)-based”, “cell-based high throughput” for “cell-based”, “CHO” for “CHO-K1”; type: functional
Orexin receptor type 2 [10] = target: T3, Orexin receptor type 2; experiment: Counterscreen assay for antagonists of the orexin 1 receptor (OX1R; HCRTR1): Homogeneous Time Resolved Fluorescence (HTRF)-based cell-based dose response assay for antagonists of the orexin 2 receptor (OX2R; HCRTR2), run by assay provider.; type: functional
Protein Wnt-3a = Protein Wnt-3a (Mus musculus, UniProt P27467); experiment: antagonism of Wnt3a pathway luciferase reporter – Wnt-LIGHT cells, luminescence, selectivity assay for Gli-SUFU antagonist project, dose response (AID 651570); type: functional; conditions: read-out: IC50_Mean;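 further: Wnt-LIGHT reporter cells stimulated with conditioned medium from Wnt3a-producing cells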
Sequence of Protein Wnt-3a (P27467 whole entry, the tested form may be a part): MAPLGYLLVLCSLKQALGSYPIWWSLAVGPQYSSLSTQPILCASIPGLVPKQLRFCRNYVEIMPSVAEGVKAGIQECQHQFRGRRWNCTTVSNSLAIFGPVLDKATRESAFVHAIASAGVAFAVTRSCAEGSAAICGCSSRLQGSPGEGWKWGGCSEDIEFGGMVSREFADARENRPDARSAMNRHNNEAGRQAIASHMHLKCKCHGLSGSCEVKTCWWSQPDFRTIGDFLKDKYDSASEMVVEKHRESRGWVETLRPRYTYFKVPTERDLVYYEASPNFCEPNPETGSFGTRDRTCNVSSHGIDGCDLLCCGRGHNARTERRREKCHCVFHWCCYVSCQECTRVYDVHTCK

[11] = target: T4, Sentrin-specific protease 6 (Homo sapiens, UniProt Q9GZR1); experiment: inhibition of human SENP6 catalytic domain – biochemical, luminescence, set 2, SAR follow-up (AID 588598); type: functional
T4 sequence (Q9GZR1 whole entry): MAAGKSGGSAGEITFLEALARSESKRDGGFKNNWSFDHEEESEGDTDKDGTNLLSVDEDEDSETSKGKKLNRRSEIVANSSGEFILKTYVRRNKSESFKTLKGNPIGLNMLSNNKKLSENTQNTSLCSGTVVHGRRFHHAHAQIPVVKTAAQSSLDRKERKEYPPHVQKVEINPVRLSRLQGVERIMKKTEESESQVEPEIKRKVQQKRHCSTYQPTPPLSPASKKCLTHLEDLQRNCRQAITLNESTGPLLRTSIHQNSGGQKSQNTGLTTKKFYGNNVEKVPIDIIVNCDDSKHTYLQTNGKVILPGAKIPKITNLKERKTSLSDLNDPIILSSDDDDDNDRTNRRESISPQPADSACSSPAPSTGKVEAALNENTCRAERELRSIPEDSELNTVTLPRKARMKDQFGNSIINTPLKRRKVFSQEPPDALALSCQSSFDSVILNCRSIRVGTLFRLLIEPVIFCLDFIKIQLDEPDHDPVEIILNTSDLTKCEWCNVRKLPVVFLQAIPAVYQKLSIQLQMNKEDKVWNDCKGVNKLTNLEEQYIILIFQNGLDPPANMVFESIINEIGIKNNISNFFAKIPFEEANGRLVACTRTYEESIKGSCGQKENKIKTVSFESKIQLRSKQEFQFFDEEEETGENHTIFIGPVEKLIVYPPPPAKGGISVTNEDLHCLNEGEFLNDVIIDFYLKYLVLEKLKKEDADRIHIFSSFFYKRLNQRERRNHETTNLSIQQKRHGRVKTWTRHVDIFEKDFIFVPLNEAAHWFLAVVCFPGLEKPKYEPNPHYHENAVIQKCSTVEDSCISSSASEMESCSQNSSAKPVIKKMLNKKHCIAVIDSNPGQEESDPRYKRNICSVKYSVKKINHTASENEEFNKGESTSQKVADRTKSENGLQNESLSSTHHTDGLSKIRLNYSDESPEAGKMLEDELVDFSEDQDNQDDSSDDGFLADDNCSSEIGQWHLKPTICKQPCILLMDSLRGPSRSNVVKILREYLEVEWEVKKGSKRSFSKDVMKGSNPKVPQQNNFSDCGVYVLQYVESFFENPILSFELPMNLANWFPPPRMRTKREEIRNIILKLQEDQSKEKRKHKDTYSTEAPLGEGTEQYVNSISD

[12] = target: T5, Sentrin-specific protease 7 (Homo sapiens, UniProt Q9BQF6); experiment: inhibition of human SENP7 cleavage activity – biochemical, luminescence, SAR follow-up (AID 504497); type: functional
T5 sequence (Q9BQF6 whole entry): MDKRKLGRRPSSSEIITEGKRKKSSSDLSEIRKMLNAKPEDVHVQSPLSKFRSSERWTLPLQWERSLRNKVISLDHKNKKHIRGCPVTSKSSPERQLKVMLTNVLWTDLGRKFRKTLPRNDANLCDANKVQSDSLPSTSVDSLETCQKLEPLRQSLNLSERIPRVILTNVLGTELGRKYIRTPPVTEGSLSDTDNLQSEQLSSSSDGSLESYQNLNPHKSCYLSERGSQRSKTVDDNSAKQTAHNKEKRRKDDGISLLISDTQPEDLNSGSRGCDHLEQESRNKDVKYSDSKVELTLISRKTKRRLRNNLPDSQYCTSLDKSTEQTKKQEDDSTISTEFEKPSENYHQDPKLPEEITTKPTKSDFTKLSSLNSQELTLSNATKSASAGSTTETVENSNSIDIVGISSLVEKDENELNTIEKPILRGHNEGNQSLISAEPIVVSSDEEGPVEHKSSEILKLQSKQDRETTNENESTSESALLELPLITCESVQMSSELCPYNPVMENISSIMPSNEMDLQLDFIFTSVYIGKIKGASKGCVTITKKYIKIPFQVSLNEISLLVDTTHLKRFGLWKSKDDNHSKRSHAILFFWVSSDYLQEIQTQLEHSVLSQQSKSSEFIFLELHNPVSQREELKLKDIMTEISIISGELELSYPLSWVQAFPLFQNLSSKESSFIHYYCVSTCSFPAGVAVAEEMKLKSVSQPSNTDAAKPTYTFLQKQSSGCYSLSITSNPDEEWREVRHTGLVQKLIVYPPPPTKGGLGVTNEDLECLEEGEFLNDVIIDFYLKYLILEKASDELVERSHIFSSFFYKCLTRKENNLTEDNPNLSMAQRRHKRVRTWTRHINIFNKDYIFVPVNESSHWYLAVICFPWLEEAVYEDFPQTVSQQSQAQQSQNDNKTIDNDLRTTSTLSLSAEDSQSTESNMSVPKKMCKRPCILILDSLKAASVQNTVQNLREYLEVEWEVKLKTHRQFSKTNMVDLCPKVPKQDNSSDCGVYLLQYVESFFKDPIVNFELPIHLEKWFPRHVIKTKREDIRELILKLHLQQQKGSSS

[13] = target: T6, Sentrin-specific protease 8 (Homo sapiens, UniProt Q96LD8); experiment: inhibition of human SENP8 cleavage activity – biochemical, luminescence, SAR follow-up (AID 504501); type: functional
T6 sequence (Q96LD8 whole entry): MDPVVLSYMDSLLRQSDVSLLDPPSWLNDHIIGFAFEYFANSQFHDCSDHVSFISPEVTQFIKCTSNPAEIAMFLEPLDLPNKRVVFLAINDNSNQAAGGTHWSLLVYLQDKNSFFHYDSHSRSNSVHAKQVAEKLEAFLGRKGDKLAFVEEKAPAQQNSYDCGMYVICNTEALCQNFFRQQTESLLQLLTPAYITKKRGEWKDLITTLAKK

Caspase-3 = target: T7, Caspase-3 (Homo sapiens, UniProt P42574); experiment: SAR Analysis of small molecule inhibitors of Sentrin-specific proteases (SENPs) using a Caspase-3 Selectivity assay. [Related pubchem assays (depositor defined):AID2540, AID2599, AID434973, AID489001]; type: functional
T7 sequence (P42574 whole entry): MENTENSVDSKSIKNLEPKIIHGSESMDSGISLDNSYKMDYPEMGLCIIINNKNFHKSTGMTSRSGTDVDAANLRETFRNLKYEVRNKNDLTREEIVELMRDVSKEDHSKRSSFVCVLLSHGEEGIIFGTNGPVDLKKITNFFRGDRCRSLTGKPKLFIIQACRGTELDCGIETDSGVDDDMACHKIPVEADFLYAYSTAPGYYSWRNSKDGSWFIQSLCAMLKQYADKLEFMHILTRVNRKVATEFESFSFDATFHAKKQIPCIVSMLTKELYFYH

[14] = target: T5, Sentrin-specific protease 7; experiment: inhibition of human SENP7 cleavage activity – biochemical, luminescence, set 2, SAR follow-up (AID 588600); type: functional
[15] = target: T4, Sentrin-specific protease 6; experiment: SAR Analysis of small molecule inhibitors of Sentrin-specific protease 6 (SENP6) using a Luminescent assay. [Related pubchem assays (depositor defined):AID2582, AID2599]; type: functional
[16] = target: T6, Sentrin-specific protease 8; experiment: inhibition of sentrin protease 8 – biochemical, luminescence, set 2, SAR follow-up (AID 588601); type: functional
[17] = target: Ras and Rab interactor 1/Tyrosine-protein kinase ABL1 (Homo sapiens, UniProt P00519+Q13671); type: functional;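 further: biochemical TR-FRET dose-response test measuring inhibition of binding between Rin1 and Abl proteins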
Sequence of Ras and Rab interactor 1/Tyrosine-protein kinase ABL1 (P00519 whole entry): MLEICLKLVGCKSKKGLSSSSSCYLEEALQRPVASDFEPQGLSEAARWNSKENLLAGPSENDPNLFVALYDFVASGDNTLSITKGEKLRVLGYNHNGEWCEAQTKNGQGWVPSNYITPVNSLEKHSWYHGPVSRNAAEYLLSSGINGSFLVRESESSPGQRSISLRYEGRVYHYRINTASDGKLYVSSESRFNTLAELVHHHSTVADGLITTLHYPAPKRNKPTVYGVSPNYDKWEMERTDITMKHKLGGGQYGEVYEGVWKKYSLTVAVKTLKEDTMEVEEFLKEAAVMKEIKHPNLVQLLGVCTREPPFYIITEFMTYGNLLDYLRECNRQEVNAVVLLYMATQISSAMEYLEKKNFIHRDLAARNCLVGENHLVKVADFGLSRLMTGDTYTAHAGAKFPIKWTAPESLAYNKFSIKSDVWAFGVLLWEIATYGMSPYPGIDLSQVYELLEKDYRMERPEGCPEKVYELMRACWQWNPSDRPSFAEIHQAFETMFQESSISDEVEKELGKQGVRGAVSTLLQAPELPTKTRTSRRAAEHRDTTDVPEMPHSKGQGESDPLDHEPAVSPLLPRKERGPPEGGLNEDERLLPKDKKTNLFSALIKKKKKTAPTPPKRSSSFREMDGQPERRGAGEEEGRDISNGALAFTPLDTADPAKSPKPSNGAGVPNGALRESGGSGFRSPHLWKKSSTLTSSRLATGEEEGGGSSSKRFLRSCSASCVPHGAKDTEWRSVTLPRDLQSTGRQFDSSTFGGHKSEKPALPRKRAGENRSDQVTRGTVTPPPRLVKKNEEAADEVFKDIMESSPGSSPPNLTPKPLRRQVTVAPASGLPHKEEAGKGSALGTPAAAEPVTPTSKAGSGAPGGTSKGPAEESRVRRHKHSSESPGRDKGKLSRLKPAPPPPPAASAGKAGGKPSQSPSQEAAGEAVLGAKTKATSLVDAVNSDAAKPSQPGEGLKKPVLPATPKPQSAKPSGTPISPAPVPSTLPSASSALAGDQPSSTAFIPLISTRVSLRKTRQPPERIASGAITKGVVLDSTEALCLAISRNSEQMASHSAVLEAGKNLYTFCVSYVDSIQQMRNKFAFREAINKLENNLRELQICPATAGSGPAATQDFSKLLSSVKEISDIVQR
Sequence of Ras and Rab interactor 1/Tyrosine-protein kinase ABL1 (Q13671 whole entry): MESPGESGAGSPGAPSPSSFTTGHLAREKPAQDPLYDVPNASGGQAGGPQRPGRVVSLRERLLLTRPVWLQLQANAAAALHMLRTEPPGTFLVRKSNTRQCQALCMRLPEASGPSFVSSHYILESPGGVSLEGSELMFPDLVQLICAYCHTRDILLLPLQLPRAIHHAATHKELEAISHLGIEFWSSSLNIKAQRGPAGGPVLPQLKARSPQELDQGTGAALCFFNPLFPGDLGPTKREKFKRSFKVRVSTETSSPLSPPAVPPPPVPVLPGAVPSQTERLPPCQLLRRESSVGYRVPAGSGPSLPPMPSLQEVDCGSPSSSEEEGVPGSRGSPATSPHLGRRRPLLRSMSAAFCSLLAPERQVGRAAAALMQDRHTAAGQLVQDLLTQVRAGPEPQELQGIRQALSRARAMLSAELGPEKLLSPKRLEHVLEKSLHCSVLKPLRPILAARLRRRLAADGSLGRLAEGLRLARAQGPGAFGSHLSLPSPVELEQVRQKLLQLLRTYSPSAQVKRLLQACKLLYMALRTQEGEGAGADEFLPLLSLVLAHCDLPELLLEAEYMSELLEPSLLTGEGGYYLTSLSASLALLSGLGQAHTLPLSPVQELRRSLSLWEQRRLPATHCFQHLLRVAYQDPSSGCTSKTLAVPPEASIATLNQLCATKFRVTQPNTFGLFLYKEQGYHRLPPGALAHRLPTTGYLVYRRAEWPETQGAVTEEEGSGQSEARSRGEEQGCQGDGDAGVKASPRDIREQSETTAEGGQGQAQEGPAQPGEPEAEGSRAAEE

Cc1nc2c(ccc3nc(NC(=O)Cc4cccc5ccccc45)sc32)s1
EC50 [1]: > 195 µM (not active) | IC50 [2]: 5.34 µM (active) | IC50 (CHO-K1): > 66.2 µM (inactive) | IC50 (Orexin receptor type 2 [3]): 17.6 µM (inactive) | EC50 [4]: > 60 µM (not active) | EC50 [5]: 16.3 µM (active) | IC50 [6]: 1.45 µM (active) | EC50 [7]: > 120 µM (not active) | CC50 [8]: 12.2 µM (active) | IC50 [9]: > 49.7 µM (inactive) | IC50 (Orexin receptor type 2 [10]): > 50 µM (inactive)

Cc1ccc(C)c(NP(=O)(Oc2ccccc2)Oc2ccccc2)c1
IC50 [2]: 26.3 µM (inactive) | IC50 (CHO-K1): > 66.2 µM (inactive) | IC50 (Orexin receptor type 2 [3]): > 88.8 µM (inactive) | IC50 [6]: 5.47 µM (active) | IC50 [9]: 49 µM (inactive) | IC50 (Orexin receptor type 2 [10]): > 50 µM (inactive)

Cc1ccc2c(c1)c(C)cc[n+]2Cc1ccccc1
IC50 (Protein Wnt-3a): 15.3 µM (active)

O=C(Nc1nc2ccccc2s1)c1cc2ccccc2s1
IC50 [11]: 0.58 µM (active) | IC50 [12]: 0.49 µM (active) | IC50 [13]: 0.66 µM (active) | IC50 (Caspase-3): 0.51 µM (active) | IC50 [14]: 0.589 µM (active) | IC50 [15]: 0.67 µM (active) | IC50 [16]: 0.543 µM (active)

Cc1cc(S(=O)(=O)N2CCN(C(=O)CCC(=O)N3CCOCC3)CC2)ccc1Br
IC50 [17]: 21.5 µM (inactive)
